{"source": "paper doi:10.1101/2024.08.19.608619", "about": "“Discovery of potent SARS-CoV-2 nsp3 macrodomain inhibitors uncovers lack of translation to cellular antiviral response” (bioRxiv, 2024)", "key": {"SARS-CoV-2 nsp3-mac1": {"molecular_target": "SARS-CoV-2 nsp3-mac1 (Severe acute respiratory syndrome coronavirus 2, UniProt P0DTD1)", "assay": "biochemical"}, "[1]": {"assay": "Hepatic microsomal stability, HLM", "type": "in vitro ADME, human", "conditions": "In vitro human liver microsomal stability; for perc_remaining_no_cofactor: no cofactor; for microsomal CLint: liver microsomes"}, "[2]": {"assay": "Hepatic microsomal stability, MLM", "type": "in vitro ADME"}, "LogD": {"assay": "LogD", "conditions": "pH 7.4"}, "[3]": {"assay": "In vitro kinetic solubility"}, "[4]": {"assay": "Permeability Papp (AB) MDR1/MDCKII", "conditions": "In vitro MDR1-MDCKII permeability, recovery A to B, mean"}, "[5]": {"test_system": "SARS-CoV-2, isolate USA-WA1/2020", "assay": "microbe, parasite or virus in culture", "type": "cell-based", "conditions": "HeLa-ACE2 SARS-CoV-2 antiviral effect without P-gp inhibitor"}, "SARS-CoV-2": {"test_system": "SARS-CoV-2", "assay": "Antiviral effect in iPSC-derived pneumocyte system", "type": "cell-based", "conditions": "iPSC pneumocytes SARS-CoV-2 antiviral effect"}, "iPSC pneumocytes": {"test_system": "iPSC pneumocytes", "assay": "iPSC pneumocytes cytotoxicity", "type": "cell-based", "conditions": "protocol iPSC pneumocytes cytotoxicity", "description": "Supplement media-1.zip/Cytotoxicity.csv, table | column: cc10; cc50; perc_min_measured; perc_max_measured"}, "in vitro": {"assay": "in vitro", "parameters": "Cytotoxicity in iPSC-derived pneumocytes, CC50", "conditions": "human, ipsc-derived pneumocytes; ASAP-0008327-001=ASAP-0008438-001; read-out: 50.0", "description": "Finally, we consider the hypothesis that interferon response triggers ADP-ribosylation, thus profiling the compounds in enhanced and physiologically relevant interferon environments could reveal detectable antiviral effects. […] Furthermore, HeLa-ACE2 cells, and all cancerous cell lines, display defective innate immune response ([1]). As such, we also assess our compound in a primary-like iPSC-derived pneumocyte system (Figure 7C), showing likewise a lack of antiviral activity in this physiologically relevant innate immunity system."}, "MDR1": {"test_system": "MDR1", "assay": "Permeability Papp (AB) MDR1/MDCKII", "conditions": "dog, MDCK-MDR1, papp_a_to_b_mean, In vitro MDR1-MDCKII permeability, A to B, mean"}, "[6]": {"conditions": "HTRF IC50, Figure 4A, racemic mixture"}, "[7]": {"conditions": "In vitro mouse liver microsomal stability"}, "[8]": {"conditions": "In vitro mouse liver microsomal stability, no cofactor"}, "[9]": {"conditions": "maximum measured response of dose series"}, "[10]": {"conditions": "IC50, nsp3-mac1 activity, Figures 1-3 and text"}}, "note": "Where “and” joins values, the source holds several entries; their conditions need not be identical. Equal values may be shown once. Read-outs that look alike come from different tables or passages of the source."}
{"compound": "COc1ccc(C(Nc2ncnc3[nH]ccc23)C(C)C)cc1", "note": "(centres unmarked) [ASAP-0000752]", "values": [{"measurement": "IC50", "setting": "SARS-CoV-2 nsp3-mac1; [6]", "result": 7.2, "unit": "µM"}]}
{"compound": "O=C(O)C(Nc1ncnc2[nH]ccc12)c1ccc2c(c1)OCCO2", "note": "(centres unmarked) [ASAP-0000789]", "values": [{"measurement": "IC50", "setting": "SARS-CoV-2 nsp3-mac1; [6]", "result": 8.7, "unit": "µM"}]}
{"compound": "c1nc(NC(c2ccc3c(c2)OCCO3)C2CCC2)c2cc[nH]c2n1", "note": "(centres unmarked) [ASAP-0000866]", "values": [{"measurement": "IC50", "setting": "SARS-CoV-2 nsp3-mac1; [6]", "result": 5.8, "unit": "µM"}]}
{"compound": "FC(F)(F)C(Nc1ncnc2[nH]ccc12)c1ccc2c(c1)OCCO2", "note": "(centres unmarked) [ASAP-0000870]", "values": [{"measurement": "IC50", "setting": "SARS-CoV-2 nsp3-mac1; Figure 4A, racemic mixture, read-out: HTRF IC50", "result": 19, "unit": "µM"}]}
{"compound": "CC(C)(C)C(Nc1ncnc2[nH]ccc12)c1ccc2c(c1)OCCO2", "note": "(centres unmarked) [ASAP-0008277]", "values": [{"measurement": "IC50", "setting": "SARS-CoV-2 nsp3-mac1; [6]", "result": 1.1, "unit": "µM"}]}
{"compound": "CC(C)C(Nc1ncnc2[nH]ccc12)c1ccc2c(c1)NC(=O)CO2", "note": "(centres unmarked) [ASAP-0008431]", "values": [{"measurement": "IC50", "setting": "SARS-CoV-2 nsp3-mac1; [6]", "result": 0.39, "unit": "µM"}, {"measurement": "clint", "setting": "[1]", "result": 31.0, "unit": "µL/min/mg"}, {"measurement": "perc_remaining", "setting": "[1]", "result": "73.0% and 56.0%"}, {"measurement": "t_half", "setting": "[1]", "result": "79.0 min and 54.3 min"}, {"measurement": "perc_remaining_no_cofactor", "setting": "[1]", "result": "105.0% and 92.0%"}, {"measurement": "microsomal CLint", "setting": "[1]; human", "result": 21, "unit": "µL/min/mg"}, {"measurement": "clint", "setting": "[2]; [7]", "result": 78.0, "unit": "µL/min/mg"}, {"measurement": "perc_remaining", "setting": "[2]; [7]", "result": "26.0% and 27.0%"}, {"measurement": "t_half", "setting": "[2]; [7]", "result": "20.9 min and 21.4 min"}, {"measurement": "perc_remaining_no_cofactor", "setting": "[2]; [8]", "result": 110.0, "unit": "%"}, {"measurement": "perc_remaining_no_cofactor", "setting": "[2]; In vitro mouse liver microsomal stability; no cofactor", "result": 93.0, "unit": "%"}, {"measurement": "microsomal CLint", "setting": "[2]; mouse, liver microsomes, In vitro mouse liver microsomal stability", "result": 80, "unit": "µL/min/mg"}, {"measurement": "logd", "setting": "LogD; pH 7.4, logd, In vitro LogD", "result": 2.2}, {"measurement": "solubility_mean", "setting": "[3]; In vitro kinetic solubility, ph 7.4", "result": 374, "unit": "µM"}, {"measurement": "solubility", "setting": "[3]; pH 7.4, solubility_mean, In vitro kinetic solubility, ph 7.4", "result": 389, "unit": "µM"}, {"measurement": "perc_recovery_a_to_b_mean", "setting": "[4]", "result": "86.0% and 98.9%"}]}
{"compound": "CC(C)[C@@H](Nc1ncnc2[nH]c(C(N)=O)cc12)c1ccc2c(c1)OCCO2", "note": "[ASAP-0008438]", "values": [{"measurement": "perc_max_measured", "setting": "[5]; [9]", "result": "108.483% and 95.443%"}, {"measurement": "EC50", "setting": "[5]; read-out: ec50", "result": "> 20", "unit": "µM"}, {"measurement": "EC90", "setting": "[5]; read-out: ec90", "result": "> 20", "unit": "µM"}, {"measurement": "EC50", "setting": "SARS-CoV-2", "result": "> 50", "unit": "µM"}, {"measurement": "EC90", "setting": "SARS-CoV-2", "result": "> 50", "unit": "µM"}, {"measurement": "perc_max_measured", "setting": "SARS-CoV-2; [9]", "result": 162.718, "unit": "%"}, {"measurement": "perc_min_measured", "setting": "SARS-CoV-2; minimum measured response of dose series", "result": 51.066, "unit": "%"}, {"measurement": "CC50", "setting": "iPSC pneumocytes", "result": "> 50", "unit": "µM"}, {"measurement": "cc10", "setting": "iPSC pneumocytes", "result": "> 50.0", "unit": "µM"}, {"measurement": "perc_max_measured", "setting": "iPSC pneumocytes; highest measured response of the dose series", "result": 107.376, "unit": "%"}, {"measurement": "perc_min_measured", "setting": "iPSC pneumocytes; lowest measured response of the dose series", "result": 74.883, "unit": "%"}, {"measurement": "cc10", "setting": "HeLa-ACE2 cells", "result": "< 0.082", "unit": "µM"}, {"measurement": "cc50", "setting": "HeLa-ACE2 cells", "result": "< 0.082", "unit": "µM"}, {"measurement": "perc_max_measured", "setting": "HeLa-ACE2 cells; protocol HeLa-ACE2 cytotoxicity, highest measured response of the dose series", "result": "102.95% and 76.872%"}, {"measurement": "perc_min_measured", "setting": "HeLa-ACE2 cells; protocol HeLa-ACE2 cytotoxicity, lowest measured response of the dose series", "result": "63.007% and 58.0%"}, {"measurement": "CC50", "setting": "in vitro", "result": "> 50", "unit": "µM"}]}
{"compound": "CNC(=O)Cn1cc(-c2cc3c(NC(c4ccc5c(c4)OCCO5)C(C)C)ncnc3[nH]2)cn1", "note": "(centres unmarked) [ASAP-0008565]", "values": [{"measurement": "IC50", "setting": "SARS-CoV-2 nsp3-mac1; [10]", "result": 0.25, "unit": "µM"}, {"measurement": "increase in potency relative to the starting point", "setting": "SARS-CoV-2 nsp3-mac1; relative to ASAP-000450", "result": 10, "unit": "x"}, {"measurement": "perc_remaining", "setting": "[1]", "result": 14.0, "unit": "%"}, {"measurement": "t_half", "setting": "[1]", "result": 14.0, "unit": "min"}, {"measurement": "perc_remaining_no_cofactor", "setting": "[1]", "result": 92.0, "unit": "%"}, {"measurement": "microsomal CLint", "setting": "[1]", "result": 119, "unit": "µL/min/mg"}, {"measurement": "perc_remaining", "setting": "[2]; [7]", "result": 46.0, "unit": "%"}, {"measurement": "t_half", "setting": "[2]; [7]", "result": 35.7, "unit": "min"}, {"measurement": "perc_remaining_no_cofactor", "setting": "[2]; [8]", "result": 90.0, "unit": "%"}, {"measurement": "microsomal CLint", "setting": "[2]; liver microsomes; In vitro mouse liver microsomal stability", "result": 47, "unit": "µL/min/mg"}, {"measurement": "logd", "setting": "LogD", "result": 2.9}, {"measurement": "solubility", "setting": "[3]; pH 7.4", "result": 289, "unit": "µM"}, {"measurement": "perc_recovery_a_to_b_mean", "setting": "[4]", "result": 94.1, "unit": "%"}, {"measurement": "Papp A→B", "setting": "MDR1", "result": 1.94, "unit": "×10⁻⁶ cm/s"}]}
{"compound": "CC(C)C(Nc1ncnc2[nH]c(-c3cnn(C)c3)cc12)c1ccc2c(c1)OCCO2", "note": "(centres unmarked) [ASAP-0008596]", "values": [{"measurement": "IC50", "setting": "SARS-CoV-2 nsp3-mac1; [10]", "result": 0.56, "unit": "µM"}]}
{"compound": "CC(C)C(Nc1ncnc2[nH]c(C(=O)NC3CCN(C)C3)cc12)c1ccc2c(c1)OCCO2", "note": "(centres unmarked) [ASAP-0010747]", "values": [{"measurement": "IC50", "setting": "SARS-CoV-2 nsp3-mac1; [6]", "result": 0.46, "unit": "µM"}]}
